Measured values published in publication PMC6934184, “Selective DNA-PKcs inhibition extends the therapeutic index of localized radiotherapy and chemotherapy” (The Journal of Clinical Investigation, 2019).

Biological target: T1, RAF1 (cRAF) Y340D Y341D (Homo sapiens, UniProt P04049, Y340D/Y341D)
T1 construct: purchased Thermo Fisher Scientific (Life Technologies) SelectScreen
Assay: SelectScreen Z'LYTE
Format: biochemical
Settings: ATP 100 µM
Summary of the method: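 SelectScreen broad panel; activity (Z'LYTE, Adapta) plus binding formats. ATP: Km app for CSF1R Z'LYTE; 10 for CAMK1 Adapta. Readout = % per kinase.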

T1 sequence (P04049 whole entry Y340D/Y341D): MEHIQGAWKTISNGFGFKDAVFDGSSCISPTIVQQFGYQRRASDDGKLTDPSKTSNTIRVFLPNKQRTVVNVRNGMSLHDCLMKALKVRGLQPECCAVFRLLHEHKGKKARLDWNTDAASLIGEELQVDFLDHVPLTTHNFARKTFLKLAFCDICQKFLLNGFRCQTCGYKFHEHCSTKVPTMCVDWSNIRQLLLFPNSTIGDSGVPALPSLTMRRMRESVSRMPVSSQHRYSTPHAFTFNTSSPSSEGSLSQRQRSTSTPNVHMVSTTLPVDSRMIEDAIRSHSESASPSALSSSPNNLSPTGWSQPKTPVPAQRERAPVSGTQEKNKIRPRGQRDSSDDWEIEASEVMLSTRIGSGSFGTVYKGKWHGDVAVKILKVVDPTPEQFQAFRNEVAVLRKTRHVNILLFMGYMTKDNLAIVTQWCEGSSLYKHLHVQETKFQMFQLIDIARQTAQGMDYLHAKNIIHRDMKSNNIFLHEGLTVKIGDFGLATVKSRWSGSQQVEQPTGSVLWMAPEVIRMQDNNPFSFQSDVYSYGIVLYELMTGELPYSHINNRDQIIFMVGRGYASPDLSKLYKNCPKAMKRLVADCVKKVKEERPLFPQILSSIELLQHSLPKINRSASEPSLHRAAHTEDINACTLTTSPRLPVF

## CN(C(=O)CN1CCOCC1)c1ccc2sc3c(-c4cccc5c(=O)cc(N6CC7CCC(C6)O7)oc45)cccc3c2c1 [NU5455]
  inhibition at 1 µM: 7.9%
